These results are taken from PubChem BioAssay (NCI).

Among the test systems are XF 498 CNS; HOP-18 NSCLC; DMS 114 small cell lung; LXFL 529 NSCLC; SNB-78 CNS; SN12K1 renal; P388 leukemia; P388/ADR leukemia; DLD-1 colon; MDA-N; BT-549 breast.
Test in all cases: NCI tumour cell line growth inhibition, 48 h

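Briefly, cells in 96-well plates were exposed to five compound concentrations for 48 h, and endpoints were estimated by linear interpolation. At the GI50, growth is halved. At the TGI there is no net growth.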

As to `COC(=O)C1C=NNC1C(=O)OC` (configuration not stated), the TGI in the experiment on XF 498 CNS, in the experiment with HOP-18 NSCLC, with DMS 114 small cell lung, in the experiment on LXFL 529 NSCLC and in the experiment with SNB-78 CNS was > 100 µM throughout.
Turning to `Cc1cccc(N2C(=O)C(=O)C(c3nc4ccccc4s3)/C(=N/NC(=S)NN)C2=O)c1C` (configuration not stated), the TGI with XF 498 CNS, with DMS 114 small cell lung, in the experiment with LXFL 529 NSCLC and in the experiment on SNB-78 CNS was > 100 µM each time.
With `C/C(=N\N=C(\[Se])N(C)C)c1ccccn1`, the TGI with SN12K1 renal was 13.9 µM; with XF 498 CNS, 20.6 µM; with HOP-18 NSCLC, 12.1 µM; with DMS 114 small cell lung it was < 0.01 µM; with P388 leukemia it was < 0.01 µM; in the experiment on P388/ADR leukemia, < 0.01 µM. Further, the TGI was 13.8 µM with LXFL 529 NSCLC; 16.9 µM with DLD-1 colon; 26.3 µM in the experiment with MDA-N; 15.9 µM in the experiment on SNB-78 CNS; 21.4 µM with BT-549 breast.
On to `CCOC(=O)c1oc2ccc([N+](=O)[O-])c3c2c1CCC3`, for which the TGI in the experiment on XF 498 CNS is 41 µM; in the experiment with HOP-18 NSCLC it was > 100 µM; with DMS 114 small cell lung, > 100 µM; in the experiment on LXFL 529 NSCLC it was > 100 µM; in the experiment on DLD-1 colon it was > 100 µM; with MDA-N, > 100 µM. Besides, the TGI with SNB-78 CNS was > 75 µM; in the experiment with BT-549 breast it was > 93 µM.
For the molecule `C#CC1(O)c2ccccc2C(=O)c2ccccc21`, the TGI with XF 498 CNS, with HOP-18 NSCLC, in the experiment on LXFL 529 NSCLC and in the experiment with SNB-78 CNS was > 100 µM throughout.
Take `O=S1(=O)CS(=O)(=O)OCCO1`: the TGI was 92.4 µM in the experiment with SN12K1 renal; 47.1 µM in the experiment with XF 498 CNS; 436 µM with HOP-18 NSCLC; 108 µM with DMS 114 small cell lung; 119 µM in the experiment on P388 leukemia; 91.8 µM in the experiment with P388/ADR leukemia. Besides, the TGI was found to be 164 µM with DLD-1 colon, 80.3 µM in the experiment with MDA-N, 140 µM in the experiment with SNB-78 CNS and 156 µM in the experiment with BT-549 breast. Also, the GI50 in the experiment on BT-549 breast was 69.2 µM.
On to `CCOC(=O)[C@H]1Nc2ccc([N+](=O)[O-])cc2C2c3ccccc3CC21` (some centres not stated), for which the TGI is 82.7 µM in the experiment with XF 498 CNS; 54 µM in the experiment on DMS 114 small cell lung; 49.3 µM in the experiment on LXFL 529 NSCLC; > 100 µM with DLD-1 colon; > 100 µM in the experiment on SNB-78 CNS.
As for `O=[N+]([O-])c1cc(Cl)ccc1OCc1ccccc1`, the TGI in the experiment on XF 498 CNS, in the experiment with DMS 114 small cell lung, in the experiment with LXFL 529 NSCLC, in the experiment on DLD-1 colon and in the experiment with SNB-78 CNS was > 100 µM each time.
Consider `Cc1ccc(-c2cc(=O)c3cc(C)c(C)c(C(=O)O)c3o2)cc1N`, for which the TGI in the experiment with XF 498 CNS, with HOP-18 NSCLC, with DMS 114 small cell lung, in the experiment with LXFL 529 NSCLC, in the experiment on DLD-1 colon and with SNB-78 CNS was > 100 µM each time.
Regarding `COc1ccc(/C=c2/sc3n(c2=O)NC2(CCC(C)CC2)NN=3)cc1` (configuration not stated), the TGI in the experiment on XF 498 CNS, in the experiment on DMS 114 small cell lung, in the experiment on LXFL 529 NSCLC, in the experiment on DLD-1 colon and in the experiment with SNB-78 CNS was > 100 µM each time.
For the molecule `CC1(C)C(=O)/C=C\C(=O)C(C)(C)C(=O)/C=C\C(=O)C(C)(C)C(=O)/C=C\C(=O)C(C)(C)C(=O)/C=C\C1=O`, the TGI in the experiment with XF 498 CNS was 51.4 µM; in the experiment with HOP-18 NSCLC it was 40.6 µM; with LXFL 529 NSCLC, 21.3 µM; in the experiment with DLD-1 colon, 30.1 µM; in the experiment with MDA-N, > 100 µM; in the experiment with SNB-78 CNS it was 50 µM.
For `COc1ccc(/C(Cl)=C(\c2ccc(OCCN(C)C)cc2)c2ccc(OC(=O)C(C)(C)C)cc2)cc1`, the TGI in the experiment on XF 498 CNS amounted to 23.7 µM; in the experiment with DMS 114 small cell lung, 24.6 µM; in the experiment with LXFL 529 NSCLC it was 27 µM; in the experiment with DLD-1 colon, 26.6 µM; in the experiment on SNB-78 CNS, 33.2 µM.
As to `COC(=O)C(CBr)CBr`, the TGI is 4.54 µM with XF 498 CNS; 4.23 µM in the experiment on DMS 114 small cell lung; 3.22 µM in the experiment with LXFL 529 NSCLC; 8.29 µM in the experiment on DLD-1 colon; 9.22 µM in the experiment with MDA-N; 3.59 µM in the experiment with SNB-78 CNS. The same molecule had a TGI in the experiment on BT-549 breast of 6.58 µM.
Consider `CCCCCCCCCCCCCCCC(=O)OCC1OC(OC)C2NP(=O)(N(CCCl)CCCl)OC1C2O` (configuration not stated), for which the TGI turned out to be 7.83 µM in the experiment on XF 498 CNS; 33.6 µM in the experiment on HOP-18 NSCLC; 9.31 µM in the experiment on DMS 114 small cell lung; 8.06 µM with LXFL 529 NSCLC; 14.5 µM in the experiment on DLD-1 colon; 19.2 µM in the experiment with SNB-78 CNS. In the experiment on BT-549 breast, this molecule returned a TGI of 5.96 µM.
As for `O=[N+]([O-])c1ccccc1C=NC12CC3CC(CC(C3)C1)C2`, the TGI with XF 498 CNS, with HOP-18 NSCLC, in the experiment on LXFL 529 NSCLC, in the experiment on DLD-1 colon and in the experiment with SNB-78 CNS was > 100 µM throughout.
As to `COc1cccc2c1C(=O)c1c(O)c3c(c(O)c1C2=O)C[C@@](O)(C(=O)CO)CC3OC1CC(O)C(O)C(C)O1` (some centres not stated), the TGI with XF 498 CNS was 1.24 µM; in the experiment with HOP-18 NSCLC, 6.06 µM; with DMS 114 small cell lung, 0.958 µM; in the experiment with LXFL 529 NSCLC, 9.26 µM; in the experiment on DLD-1 colon it was 10.8 µM; with MDA-N, 1.98 µM. Moreover, the TGI in the experiment on SNB-78 CNS came out at 9.41 µM; in the experiment on BT-549 breast, 1.47 µM.
Consider `CC1C[C@]2(C[C@@H](C)C(=O)O2)O[C@@H]2CC3(C)[C@@H]4CCC5C(C)(C)OC(=O)C[C@H]6OO[C@]4(CC[C@]3(C)C12)CC56O` (some centres not stated), for which the TGI with XF 498 CNS, in the experiment on HOP-18 NSCLC, with DMS 114 small cell lung, in the experiment on LXFL 529 NSCLC, in the experiment with DLD-1 colon and in the experiment with SNB-78 CNS was > 100 µM each time.
Regarding `COc1ccc2c(c1)CC1c3c(ccc(OC)c3O)CC2N1C` (configuration not stated), the TGI in the experiment with XF 498 CNS is 62.3 µM; in the experiment with HOP-18 NSCLC, > 100 µM; in the experiment on DMS 114 small cell lung, 38.8 µM; in the experiment with LXFL 529 NSCLC, 39 µM; with DLD-1 colon, > 100 µM; with SNB-78 CNS, 97 µM.
For `CC1(C)C=N[N+]2(C)C3C=CC(CC3)C12` (configuration not stated), the TGI in the experiment with HOP-18 NSCLC, in the experiment with DMS 114 small cell lung, in the experiment with LXFL 529 NSCLC, with DLD-1 colon and with SNB-78 CNS was > 100 µM each time.
In the case of `O=C(CC1(O)C(=O)Nc2ccccc21)c1ccc(O)cc1` (configuration not stated), the TGI with HOP-18 NSCLC, in the experiment with DMS 114 small cell lung, with LXFL 529 NSCLC, in the experiment with DLD-1 colon and in the experiment on SNB-78 CNS was > 100 µM each time.
On to `COc1ccc2c(c1)[n+]([O-])c(-c1ccc(C)cc1)c(N)[n+]2[O-]`, for which the TGI with HOP-18 NSCLC is > 100 µM; in the experiment on DMS 114 small cell lung, 61.4 µM; with LXFL 529 NSCLC, > 100 µM; with DLD-1 colon, > 100 µM; in the experiment on SNB-78 CNS it was > 100 µM.
For `CC12CO[C@@](C)(CC(S(=O)(=O)c3ccccc3)C1)O2` (some centres not stated), the TGI in the experiment with HOP-18 NSCLC, in the experiment on DMS 114 small cell lung, in the experiment on LXFL 529 NSCLC, with DLD-1 colon and in the experiment on SNB-78 CNS was > 100 µM each time.
On to `CCOC(=O)C1=C(C)N(NC(N)=O)C(C)(O)C12CCOC2=O` (configuration not stated), for which the TGI in the experiment with XF 498 CNS was > 100 µM; in the experiment on LXFL 529 NSCLC it was > 100 µM; in the experiment with DLD-1 colon it was > 100 µM; with SNB-78 CNS, 34.5 µM.
On to `CCN(CC)C(=O)N1CCN(C=S)CC1`, for which the TGI in the experiment on HOP-18 NSCLC, in the experiment with DMS 114 small cell lung, in the experiment on LXFL 529 NSCLC, in the experiment with DLD-1 colon and in the experiment on SNB-78 CNS was > 100 µM each time.
With `CCOC(=N)CC(=O)Nc1cccc(Cl)c1`, the TGI with XF 498 CNS, with LXFL 529 NSCLC, in the experiment with DLD-1 colon and in the experiment with SNB-78 CNS was > 100 µM throughout.
